In patent publication US20210106700A1, “Fractionated Dosing of a Phospholipid Ether Analog for the Treatment of Cancer” (Cellectar Biosciences, Inc., priority 2018, published 2021):

Tested on: OPM-2 cell line (human multiple myeloma)
Assay: OPM-2 multiple myeloma subcutaneous xenograft in CB17 SCID mice (tumor volume, doubling time, survival, body weight)
Type: in vivo, mouse
Settings: fractionated dosing
Procedure: The OPM-2 cell line (human multiple myeloma) was purchased from American Type Culture Collection (ATCC, Rockville, Md.) and maintained in McCoy's 5a media supplemented with 10% fetal bovine serum. Female CB17 SCID mice approximately 5-7 weeks of age were injected subcutaneously with 1×10^7 viable cells (in ˜100 μL Dulbecco's PBS) into the right flank. The study was initiated when tumor size had reached a pre-determined size (approximately 150-200 mm3). The mice were given potassium iodide at a concentration of 0.1% in their drinking water to block possible free iodide in the drug formulation three days prior to injection and continuing through two weeks post-injection. Mice were randomly assigned to dose groups. Tumor volume was measured with a caliper during the course of the study. Tumor doubling time calculation4 TDT=D×log(2)/log(1+r/100), where D equals days between measurements and r=rate of growth; r/100=(V2−V1/V1)×100%. Statistical analysis: 1-way Anova, Dunnett's test.

^131I-labeled 18-(p-iodo-phenyl)octadecyl phosphocholine [CLR 131]
Tumor volume vs control (after day 26): statistically significant reduction | Tumor volume vs all other treatments (at day 52, p<0.05): statistically significant reduction
